The source of these data is patent publication US20050288347A1, “Certain triazole-based compounds, compositions, and uses thereof” (priority 2004, published 2005).

Entries after “also recorded” stand apart in the source; their conditions may differ.

The first assay has as its target protein kinase. The experiment in a line: HTS ATP-utilizing enzyme assay, off-chip mobility-shift format (Caliper HTS 250). The class given is biochemical, human. The note with it: kinase(s) for which the compound exhibits protein kinase inhibitory activity; test compound 10 μM; active = greater than three-sigma from the mean activity of inactive compounds. In short, it runs like this:
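Single-point screen at 10 μM compound in HEPES pH 7.5 buffer with Triton X-100 and BSA, 2.5 h at 20–22 °C. Substrate-to-phosphopeptide ratio measured by off-chip microfluidic mobility shift; EDTA wells as 100% and DMSO wells as 0% control, hits called at three-sigma limits.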
Consider `COc1ccccc1-c1nnc(S)n1C` [5-(2-methoxyphenyl)-4-methyl-4H-1,2,4-triazole-3-thiol], for which the Kinase entry is “CDK2-cyclinE”. `CCOC(=O)CSc1nnc(-c2ccc(O)cc2)n1Cc1ccco1`: the Kinase entry is recorded as “GSK3-β; also recorded: GSK3-α”. Still for that read-out and setting: as for `CCCOc1ccc(CCc2nnc(S)n2-c2ccccc2)cc1` [4-phenyl-5-(4-propoxyphenethyl)-4H-1,2,4-triazole-3-thiol], the entry is “GSK3-β; also recorded: GSK3-α”; as for `CCOC(=O)CN(C(=O)CSc1nnc(-c2ccc([N+](=O)[O-])cc2)n1C)c1ccccc1`, “PDGFRR-α and FYN”. With `Cc1ccc(C)c(-n2c(SCC(N)=O)nnc2-c2ccc(O)cc2)c1`, the Kinase entry was “GSK3-β; also recorded: GSK3-α; also recorded: CDK2-cyclinE”. For `COc1ccc(NCc2nnc(SCC(=O)Nc3ccccc3C(=O)O)n2-c2ccc(OC)cc2)cc1`, the Kinase result is recorded as “FYN”.

Take `O=C(CSc1nnc(-c2ccc(O)cc2)n1CC1CCCO1)Nc1nc2c(s1)CCCC2` (stereo not drawn): the Kinase entry is recorded as “GSK3-β; also recorded: AURORA-A”. On to `Cn1c(SCC(=O)c2ccc3c(c2)OCCO3)nnc1-c1ccc(S(=O)(=O)N2CCOCC2)cc1`, for which the Kinase result is given as “AURORA-A”. Regarding `CCn1c(SCC(=O)Nc2nccs2)nnc1C1COc2ccccc2O1` (stereo not drawn), the Kinase entry is “GSK3-α; also recorded: GSK3-β”. As to `O=C(O)CSc1nnc(CNc2ccc(F)cc2)n1Cc1ccccc1`, the Kinase result was “DAPK1”. In the case of `Cc1ccc(NCc2nnc(SCC#N)n2-c2ccc(Cl)cc2)cc1`, the Kinase entry is “PDGFRR-α and CDK1”. Still for that read-out and setting: under `CCOC(=O)CSc1nnc(-c2ccc(OC)c(OC)c2)n1-c1ccccc1` [ethyl 2-(5-(3,4-dimethoxyphenyl)-4-phenyl-4H-1,2,4-triazol-3-ylthio)acetate] stands “MAPKAPK-2; also recorded: CDK2-cyclinE”; under `COC(=O)CSc1nnc(-c2ccncc2)[nH]1` [methyl 2-(5-(pyridin-4-yl)-4H-1,2,4-triazol-3-ylthio)acetate], “AURORA-A; also recorded: DYRK2; also recorded: GSK3-β”.

Take `CCOc1ccc(NC(=O)CSc2nnc(-c3ccc(O)cc3)n2-c2ccccc2)cc1`: the Kinase result was “HCK”. `CCn1c(SCC(=O)Nc2ccccc2C)nnc1C(C)C` [2-(4-ethyl-5-isopropyl-4H-1,2,4-triazol-3-ylthio)-N-o-tolylacetamide]: the Kinase result is given as “PDGFRR-α”. Regarding `COc1ccc(-n2c(S)nnc2-c2ccc(O)cc2)cc1` [4-(5-mercapto-4-(4-methoxyphenyl)-4H-1,2,4-triazol-3-yl)phenol], the Kinase entry was “CDK5 and GSK3-β and GSK3-α”. On the same count and under the same terms, under `Cn1c(S)nnc1COc1ccc(Br)cc1` [5-((4-bromophenoxy)methyl)-4-methyl-4H-1,2,4-triazole-3-thiol] stands “CDK2-cyclinE”. On to `Cn1c(COc2ccc3ccccc3c2)nnc1SCC(N)=O`, for which the Kinase entry is listed as “FYN”. Regarding `COCCCn1c(C)nnc1SCC(=O)NCc1ccco1`, the Kinase result is given as “FYN”. `Cc1cccc(-c2nnc(SCC(=O)O)[nH]2)c1` [2-(5-m-tolyl-4H-1,2,4-triazol-3-ylthio)acetic acid]: the Kinase entry was “GSK3-β; also recorded: DYRK2; also recorded: AURORA-A”.

For `COc1ccc(NCc2nnc(SCC#N)n2-c2ccc(C)cc2)cc1`, the Kinase entry is “FYN and PDGFRR-α and AURORA-A”. On the same count and under the same terms, as for `Cc1ccc(-n2c(SCC(=O)CC(=O)Nc3ccccc3)nnc2-c2cccnc2)cc1`, the entry is “AURORA-A”; as for `CCn1c(SCC(=O)N(c2ccccc2)c2ccccc2)nnc1-c1ccc(O)cc1`, “SRC”; as for `O=C(CSc1nnc(-c2ccc([N+](=O)[O-])cc2)n1CC1CCCO1)N1CCOCC1` (stereo not drawn), “PDGFRR-α”.

As to `FC(F)(F)c1cccc(NCc2nnc(S)n2-c2ccccc2)c1`, the Kinase result is listed as “GSK3-α”. As to `CCn1c(SCC(=O)NCc2ccco2)nnc1-c1ccccc1`, the Kinase entry is on record as “FYN”. On to `CC(Sc1nnc(COc2ccccc2)n1C)C(=O)O` (stereo not drawn) [2-(4-methyl-5-(phenoxymethyl)-4H-1,2,4-triazol-3-ylthio)propanoic acid], for which the Kinase entry was “AURORA-A”. In the case of `COCCn1c(SCC(=O)OC2CCCCC2)nnc1-c1cc2ccccc2cc1O`, the Kinase result is on record as “DAPK1”.

Regarding `O=C(CSc1nnc(-c2ccncc2)[nH]1)c1c[nH]c2ccccc12` [1-(1H-indol-3-yl)-2-(5-(pyridin-4-yl)-4H-1,2,4-triazol-3-ylthio)ethanone], the Kinase result was “CHEK2 and AURORA-A and PKA”. On to `COc1ccc(-n2c(COc3ccc4ccccc4c3)nnc2SCC(=O)O)cc1`, for which the Kinase entry is reported as “AURORA-A”. Turning to `COc1ccc(-n2c(COc3cccc4ccccc34)nnc2SCC#N)cc1`, the Kinase entry was “MAPKAPK-2 and CDK1”. The same measure, in the same setting: as for `COc1ccc(-c2nnc(S)n2-c2ccc(C)cc2)cc1` [5-(4-methoxyphenyl)-4-p-tolyl-4H-1,2,4-triazole-3-thiol], the entry is “GSK3-β; also recorded: GSK3-α”; as for `CCC(=O)Nc1ccc(NC(=O)CSc2nnc(-c3ccc(O)cc3)n2CC)cc1C`, “GSK3-α”. Turning to `Cn1c(S)nnc1-c1ccc(O)cc1` [4-(5-mercapto-4-methyl-4H-1,2,4-triazol-3-yl)phenol], the Kinase entry was “CDK5 and CDK2-cyclinA and CDK2-cyclinE”. Regarding `Cn1cnnc1SCC(=O)N1c2ccccc2Sc2ccccc21` [2-(4-methyl-4H-1,2,4-triazol-3-ylthio)-1-(10H-phenothiazin-10-yl)ethanone], the Kinase result was “LCK”.

As to `COCCCn1c(SCC(=O)O)nnc1-c1ccc(C(C)(C)C)cc1`, the Kinase entry is reported as “CHEK2”. Same read-out and setting: under `COc1cc([N+](=O)[O-])ccc1NC(=O)CSc1nnc(-c2ccncc2)n1Cc1ccco1` stands “FYN and PDGFRR-α and FLT-3”; under `CCOc1ccc(NCc2nnc(SCC(=O)Nc3ccccc3Br)n2-c2ccccc2)cc1`, “PDGFRR-α and FYN and FLT-3”. Same read-out and setting: as for `COc1ccc(OCc2nnc(S)n2-c2ccc(C)cc2)cc1` [5-((4-methoxyphenoxy)methyl)-4-p-tolyl-4H-1,2,4-triazole-3-thiol], the entry is “AURORA-A; also recorded: GSK3-α”; as for `O=C(O)CSc1nnc(-c2ccc([N+](=O)[O-])cc2)[nH]1` [2-(5-(4-nitrophenyl)-4H-1,2,4-triazol-3-ylthio)acetic acid], “GSK3-α; also recorded: GSK3-β; also recorded: DYRK2”. On to `O=C(CSc1nnc(-c2ccncc2)n1-c1ccc(F)cc1)Nc1nccs1`, for which the Kinase entry is reported as “GSK3-α; also recorded: GSK3-β; also recorded: CDK2-cyclinE”.

For `N#CCSc1nnc(-c2ccc(O)cc2)n1Cc1ccco1`, the Kinase entry is given as “GSK3-β; also recorded: GSK3-α; also recorded: AURORA-A”. On to `Cc1ccc(-n2c(Cc3ccccc3)nnc2SCC(=O)N2c3ccccc3Sc3ccccc32)cc1`, for which the Kinase result is “CDK2-cyclinE”. As to `COCCn1c(SCC(=O)NCc2ccc3c(c2)OCO3)nnc1-c1cc2ccccc2cc1O`, the Kinase result is reported as “AURORA-A”.

For `CCOc1ccc(NCc2nnc(SCC#N)n2-c2ccc(C)cc2)cc1`, the Kinase result is given as “FYN”. Same read-out and setting: under `CC(=O)c1ccc(NC(=O)CSc2nnc(-c3ccc(O)cc3)n2C)cc1` stands “AKT1”.

Still in this assay, the particulars now being: test compound 10 μM; active = activity greater than three-sigma from the mean of the predominately inactive population for that enzyme.
`O=[N+]([O-])c1ccc(-c2nnc(SCCN3CCOCC3)[nH]2)cc1` [4-(2-(5-(4-nitrophenyl)-4H-1,2,4-triazol-3-ylthio)ethyl)morpholine]: the “protein kinase against which the compound exhibits inhibitory activity (Table 3)” value was “GSK3-β; also recorded: GSK3-α; also recorded: AURORA-A”. Take `C=CCCc1nnc(SCc2ccccc2)n1Cc1ccc(Cl)c(Cl)c1` [3-(benzylthio)-5-(but-3-enyl)-4-(3,4-dichlorobenzyl)-4H-1,2,4-triazole]: the “protein kinase against which the compound exhibits inhibitory activity (Table 3)” value is recorded as “AURORA-A; also recorded: c-TAK1”. In the case of `Cc1ccc(-n2c(SCC(=O)NNC(=O)c3ccccc3O)nnc2-c2ccccc2O)cc1`, the “protein kinase against which the compound exhibits inhibitory activity (Table 3)” value was “AURORA-A”. With `CCn1c(SCc2ccc(C(C)(C)C)cc2)nnc1-c1ccncc1` [4-(5-(4-tert-butylbenzylthio)-4-ethyl-4H-1,2,4-triazol-3-yl)pyridine], the “protein kinase against which the compound exhibits inhibitory activity (Table 3)” value is given as “MAPKAPK-2”.

Regarding `COc1ccccc1-n1c(SCCN2CCCCC2)nnc1-c1cccnc1`, the “protein kinase against which the compound exhibits inhibitory activity (Table 3)” value is given as “AURORA-A”.

Regarding `Cc1ccc(-n2c(SCCO)nnc2-c2ccncc2)cc1` [2-(5-(pyridin-4-yl)-4-p-tolyl-4H-1,2,4-triazol-3-ylthio)ethanol], the “protein kinase against which the compound exhibits inhibitory activity (Table 3)” value is on record as “GSK3-β; also recorded: GSK3-α”. For `Cc1ccc(CCn2c(Cc3ccccc3)nnc2SCc2ccccc2)cc1` [3-benzyl-5-(benzylthio)-4-(4-methylphenethyl)-4H-1,2,4-triazole], the “protein kinase against which the compound exhibits inhibitory activity (Table 3)” value was “FLT-3 and PRAK and AURORA-A”. Still for that read-out and setting: as for `CCn1c(C)nnc1SCc1ccccc1` [3-(benzylthio)-4-ethyl-5-methyl-4H-1,2,4-triazole], the entry is “GSK3-α”.

For the molecule `O=C(CSc1nnc(-c2ccccc2)n1Cc1ccccc1)NNC(=O)c1ccccc1O`, the “protein kinase against which the compound exhibits inhibitory activity (Table 3)” value was “FYN and CSK”. On to `CCn1c(SCC(=O)NNC(=O)Cc2ccccc2)nnc1-c1ccc(Cl)cc1`, for which the “protein kinase against which the compound exhibits inhibitory activity (Table 3)” value is “FYN”. Consider `N#Cc1ccccc1CSc1nnc(-c2cccnc2)[nH]1` [2-((5-(pyridin-3-yl)-4H-1,2,4-triazol-3-ylthio)methyl)benzonitrile], for which the “protein kinase against which the compound exhibits inhibitory activity (Table 3)” value is “AURORA-A; also recorded: GSK3-α; also recorded: CHEK2”.

Turning to `O=[N+]([O-])c1ccc(-c2nnc(SCC(O)CO)[nH]2)cc1` (stereo not drawn) [3-(5-(4-nitrophenyl)-4H-1,2,4-triazol-3-ylthio)propane-1,2-diol], the “protein kinase against which the compound exhibits inhibitory activity (Table 3)” value is “AURORA-A; also recorded: FLT-3; also recorded: DYRK2”. For the molecule `Cc1nnc(SCC2CCCCC2)[nH]1` [3-(cyclohexylmethylthio)-5-methyl-4H-1,2,4-triazole], the “protein kinase against which the compound exhibits inhibitory activity (Table 3)” value is reported as “AURORA-A; also recorded: GSK3-α”. On the same count and under the same terms, under `COc1ccccc1-n1c(SCC(=O)Nc2cccc(NC(=O)C3CCCO3)c2)nnc1-c1ccccc1O` (stereo not drawn) stands “AURORA-A”.
